Results on two molecules are retold here after patent publication US20210077570A1, “COMPOSITION COMPRISING A POLYMYXIN AND TEICOPLANIN” (GALENUS G.H. AG, priority 2018, published 2021).

Read-outs that look alike come from different tables or passages of the source. Positions of bridges follow the written chain, without caps; N, C: chain ends. Non-standard residues stand in square brackets, D forms with d. Residues, ends and D or L forms follow the SMILES beside them. *: point of attachment. Heptanoyl(5-Me) = CCC(C)CCCC(=O)*; Dab = NCC[C@H](N)C(=O)O

Usually MBC stands for the lowest tested concentration that kills the bacteria rather than only halting them.

Assay in all cases: Checkerboard analysis MIC/FIC and MBC/FBC, colistin sulphate plus teicoplanin
One test concerns A. junii 1397597. The test is classed as cell-based. Conditions: agent alone, CAMHB, inoculum 5*10^5 CFU/ml; for MBC: A. junii; for MIC: A. junii 1397597, 24 h. The protocol:
(§1) Checkerboard analysis to determine minimal inhibitory concentration (MIC)/fractional inhibitory concentration (FIC) and minimal […] (MBC)/fractional […] (FBC) values of colistin sulphate (CS) plus teicoplanin (TP) for 6 Gram-negative strains with a bacterial load 5(1−10)*10^5 CFU/ml in a cation-adjusted Mueller-Hinton broth (CAMHB). • a. Antimicrobial stock solutions were prepared using sterile distilled water • b. CS was added along the ordinate; TP was added along the abscissa to 96 well, flat bottom, polystyrene panels with no treatment. Colistin alone was tested in triplicates. • c. Serial 2-fold dilutions starting with 640 μg/ml CS and 640 μg/ml TP were made; 15 μl volume of the serial dilutions were added for each agent to the appropriate wells; final volume at 30 μl • d. For each agent tested alone an additional 15 μl media was added to the well. 30 μl were added in control wells where none of the agent was tested. The negative control well contains 150 μl media without any additions • e. From an overnight bacterial culture in tryptic soy broth, 100 μl was added to 10 mL of fresh tryptic soy broth. This was then incubated at 37° C. for 1.5 hour at 180 rpm. • f. Bacteria in 120 μl CAMHB were added to each well (end concentration 5(1−10)*10^5 CFU/ml) • g. Plates were incubated at 37° C. in an ambient air incubator for 24 h • h. Turbidity at OD600 is determined with a plate photometer • i. By using a one-time inoculator 3 μl from each well of the 96-well plate were transferred to three blood agar plates. The plates were incubated over night at 37° C. in an ambient air incubator • j. MIC values are defined as lowest concentration which restricts bacterial growth to OD600≤0.1 • k. MBC values were determined by visual reading the lowest concentration which inhibits 99.9% of the growth of bacteria in the wells • l. Determination of the fractional inhibitory concentration (FIC) index and fractional bactericidal concentration (FBC) index and characterization of antimicrobial interactions was assessed • FIC calculation was carried out as: (MIC of drug A, tested in combination)/(MIC of drug A, tested alone)+(MIC of drug B, tested in combination)/(MIC of drug B, tested alone). FBC calculation was carried out just as well • Interactive categories were calculated from checkerboard analysis using MIC results from testing each agent alone and MIC results from the combination wells adjacent to the wells with growth in them […]
b. Indifference; FIC/FBC>0.5 to <4.0 c. Antagonism; FIC/FBC≥4.0 a. A. junii 1391597 (IHMA), colistin resistant

The next test concerns A. nosocomialis 1461911. The test is classed as cell-based. As to conditions: agent alone, CAMHB, inoculum 5*10^5 CFU/ml; for MIC: A. nosocomialis 1461911, 24 h; for MBC: A. nosocomialis. The protocol: as §1
b. Indifference; FIC/FBC>0.5 to <4.0 c. Antagonism; FIC/FBC≥4.0 b. A. nosocomialis 1461911 (IHMA), colistin resistant

In the next test the test system is A. haemolyticus 1655843. The class given is cell-based. As to conditions: agent alone, CAMHB, inoculum 5*10^5 CFU/ml; for MBC: A. haemolyticus. The protocol: as §1, with “By using a one-time inoculator 3 μl from each well of the 96-well plate were transferred to three blood agar plates. The plates were incubated over night at 37° C. in an ambient air incubator • j. MIC values are defined as lowest concentration which restricts bacterial growth to OD600≤0.1 • k. MBC values were determined by visual reading the lowest concentration which inhibits 99.9% of the growth of bacteria in the wells • l.” left out

A further test deals with A. guillouiae 1285286. The class given is cell-based. As to conditions: agent alone, CAMHB, inoculum 5*10^5 CFU/ml; for MIC: A. guillouiae 1285286, 24 h; for MBC: A. guillouiae. The protocol: as §1
b. Indifference; FIC/FBC>0.5 to <4.0 c. Antagonism; FIC/FBC≥4.0 d. A. guillouiae 1285286 (IHMA), colistin resistant

A further test concerns S. maltophilia 1221783. The test is classed as cell-based, Stenotrophomonas maltophilia. As to conditions: agent alone, CAMHB, inoculum 5*10^5 CFU/ml; for MIC: S. maltophilia 1221783, 24 h; for MBC: S. maltophilia, first line of Table 2 (1221783 by order). The protocol:
as §1
b. Indifference; FIC/FBC>0.5 to <4.0 c. Antagonism; FIC/FBC≥4.0 […]
e. Stenotrophomonas maltophilia 1221783 (IHMA), colistin susceptible

The next test relates to S. maltophilia 1237289. The test is classed as cell-based, Stenotrophomonas maltophilia. Conditions: agent alone, CAMHB; for MIC: S. maltophilia 1237289; for MBC: S. maltophilia, second line of Table 2 (1237289 by order). The protocol: Checkerboard analysis to determine minimal inhibitory concentration (MIC)/fractional inhibitory concentration (FIC) and minimal […] (MBC)/fractional […] (FBC) values of colistin sulphate (CS) plus teicoplanin (TP) for 6 Gram-negative strains with a bacterial load 5(1−10)*10^5 CFU/ml in a cation-adjusted Mueller-Hinton broth (CAMHB). • a. Antimicrobial stock solutions were prepared using sterile distilled water • b. CS was added along the ordinate; TP was added along the abscissa to 96 well, flat bottom, polystyrene panels with no treatment. Colistin alone was tested in triplicates. • c. Serial 2-fold dilutions starting with 640 μg/ml CS and 640 μg/ml TP were made; 15 μl volume of the serial dilutions were added for each agent to the appropriate wells; final volume at 30 μl • d. For each agent tested alone an additional 15 μl media was added to the well. 30 μl were added in control wells where none of the agent was tested. The negative control well contains 150 μl media without any additions • e. From an overnight bacterial culture in tryptic soy broth, 100 μl was added to 10 mL of fresh tryptic soy broth. This was then incubated at 37° C. for 1.5 hour at 180 rpm. • f. Bacteria in 120 μl CAMHB were added to each well (end concentration 5(1−10)*10^5 CFU/ml) • g. Plates were incubated at 37° C. in an ambient air incubator for 24 h • h. Turbidity at OD600 is determined with a plate photometer • i. By using a one-time inoculator 3 μl from each well of the 96-well plate were transferred to three blood agar plates. The plates were incubated over night at 37° C. in an ambient air incubator • j. MIC values are defined as lowest concentration which restricts bacterial growth to OD600≤0.1 • k. MBC values were determined by visual reading the lowest concentration which inhibits 99.9% of the growth of bacteria in the wells • l. Determination of the fractional inhibitory concentration (FIC) index and fractional bactericidal concentration (FBC) index and characterization of antimicrobial interactions was assessed • FIC calculation was carried out as: (MIC of drug A, tested in combination)/(MIC of drug A, tested alone)+(MIC of drug B, tested in combination)/(MIC of drug B, tested alone). FBC calculation was carried out just as well • Interactive categories were calculated from checkerboard analysis using MIC results from testing each agent alone and MIC results from the combination wells adjacent to the wells with growth in them
b. Indifference; FIC/FBC>0.5 to <4.0
c. Antagonism; FIC/FBC≥4.0

Regarding `CCC(C)CCCC(=O)N[C@@H](CCN)C(=O)N[C@H](C(=O)N[C@@H](CCN)C(=O)N[C@H]1CCNC(=O)[C@H]([C@@H](C)O)NC(=O)[C@H](CCN)NC(=O)[C@H](CCN)NC(=O)[C@H](CC(C)C)NC(=O)[C@@H](CC(C)C)NC(=O)[C@H](CCN)NC1=O)[C@@H](C)O` (stereo partly drawn) [CS, colistin sulphate] ({Heptanoyl(5-Me)}-[Dab]T[Dab][Dab][Dab][dL]L[Dab][Dab]T; lactam 4-C), the MBC was 8 µg/mL in the test with A. junii 1397597 (Acinetobacter junii, 1397597, read-out: MBC); 8 µg/mL in the test with A. nosocomialis 1461911 (Acinetobacter nosocomialis, 1461911, read-out: MBC); > 16 µg/mL in the test on A. haemolyticus 1655843 (Acinetobacter haemolyticus, 1655843, read-out: MBC); 4 µg/mL in the test with A. guillouiae 1285286 (read-out: MBC); 2 µg/mL with S. maltophilia 1221783 (Stenotrophomonas maltophilia, read-out: MBC); 8 µg/mL in the test with S. maltophilia 1237289 (Stenotrophomonas maltophilia, inoculum 5*10^5 CFU/ml, read-out: MBC). The MIC in the test on A. junii 1397597 (Acinetobacter junii, read-out: MIC) was 2 µg/mL; in the test with A. nosocomialis 1461911 (Acinetobacter nosocomialis, 1461911, 24 h, read-out: MIC) it was ≥ 4 µg/mL; with A. guillouiae 1285286 (read-out: MIC), 2 µg/mL; with S. maltophilia 1221783 (Stenotrophomonas maltophilia, 1221783, 24 h, read-out: MIC), 0.5 µg/mL; in the test on S. maltophilia 1237289 (Stenotrophomonas maltophilia, inoculum 5*10^5 CFU/ml, 24 h, read-out: MIC), 0.5 µg/mL; in the test with S. maltophilia 1237289 (Stenotrophomonas maltophilia, after 48 h growth (values in brackets), read-out: MIC), 8 µg/mL.
As to teicoplanin [TP], the MIC was >64 µg/mL with A. junii 1397597; >64 µg/mL in the test on A. nosocomialis 1461911; >64 mg/L with A. haemolyticus 1655843 (A. haemolyticus 1655843, 24 h); >64 µg/mL in the test on A. guillouiae 1285286; >64 µg/mL with S. maltophilia 1221783; >64 (>64) mg/l in the test with S. maltophilia 1237289 (inoculum 5*10^5 CFU/ml, 24 h). In addition, the MIC in the test on S. maltophilia 1237289 (after 48 h growth (values in brackets)) is reported as >64 (>64) mg/l. In addition, the MBC with A. junii 1397597, with A. nosocomialis 1461911, in the test on A. haemolyticus 1655843, in the test with A. guillouiae 1285286, with S. maltophilia 1221783 and in the test on S. maltophilia 1237289 (inoculum 5*10^5 CFU/ml) was >64 µg/mL each time.
